In article PMC8767159, “Multiparameter Optimization of Trypanocidal Cruzain Inhibitors With In Vivo Activity and Favorable Pharmacokinetics” (Frontiers in Pharmacology, 2022):

Columns and labels:
[1] = Cytotoxicity MTS assay in HFF-1 fibroblasts; type: cell-based; settings: human HFF-1 fibroblasts
Description: The synthesized compounds were evaluated for their cytotoxicity against HFF-1 cells using the MTS assay (Promega, Madison, WI) ([Barltrop et al., 1991]) as previously described ([Ferreira et al., 2019]). HFF-1 fibroblasts were plated at 2 × 10^3/well in 96-well culture plates in RPMI 1640 without phenol red enriched with 10% FCS and incubated overnight at 37°C and 5% CO2. Next, 7 concentrations (0.1–100 µM) of the compounds were added in 3-fold serial dilutions, each concentration in triplicate, and the plates were incubated for 72 h at 37°C and 5% CO2. Next, 20 µl of MTS was added to each well, and the plates were incubated for an additional 4 h at 37°C and 5% CO2. The absorbance was measured at 490 nm using a spectrophotometer, and the data were transferred to SigmaPlot 10.0 (Systat Software Inc., Erkrath, Germany) to determine the IC50 values. Doxorubicin (Sigma–Aldrich) was used as a positive control, and untreated wells (100% growth) were used as negative controls in all plates. All compounds were tested in two independent assays.

[2] = In vitro metabolic stability in human liver microsomes; type: in vitro ADME; settings: for CLint (L/h/kg) Human: Table S5; for CLint_u (L/h/kg) Human: Table S5, CLint/fu
Description: (§1) Isolated mouse (BD Gentest, Bedford, MA) and human liver microsomes (XenoTech, Kansas City, KS) ([Plant, 2004]) were added at a final concentration of 0.25 mg/ml to a solution containing 40 mM dibasic potassium phosphate and 10 mM monobasic potassium phosphate. Stock solutions of compounds at 5 mM were prepared in 100% DMSO. A 50:50 quenching solution of acetonitrile (ACN) and methanol (MeOH) was prepared. An NADPH solution was prepared at 10 mM. The preparations containing the microsomes were added to each well of the incubation plate (450 µl), which was then heated to 37°C for 10 min. The compounds were added to the respective wells of the test plate (2 µl). Then, 300 µl of the microsome preparation was added to each well of the test plate. The test plate was heated under gentle rotation for 5 min at 37°C. Next, 90 µl of the mixture contained in the test plate was added to the incubation plate, making a final volume of 540 µl. Samples were collected at the following incubation times: 0, 5, 10, 15, 20, and 30 min. To the 0 min sample plate, quenching solution (180 µl), NADPH (6 µl), and the incubation plate mixture (54 µl) were added to each well. The sample plate was then sealed, homogenized, and stored at 4°C. Then, 54 µl of the NADPH solution was added to the incubation plate, which was homogenized. Before the collection of each sample at the established times, 45 µl of the quenching solution was added to each well of the corresponding sample plates. After reaching the incubation times, 60 µl of the mixture contained in the incubation plate was added to the corresponding sample plates. The sample plates were then sealed and stored at 4°C. After the collection of the last sample (30 min), all sample plates were centrifuged at 3,800 rpm for 30 min. The supernatant from each well was collected and transferred to clean plates for mass spectrometry. Five to 10 µl of each sample was injected into an AB Sciex Triple Quad 5500 LC-MS/MS instrument.
(§2) For the biotransformation experiments and analysis of metabolites in microsomes, an Ultra-High-Pressure Liquid Chromatography instrument (UHPLC, Thermo Accela, Waltham, MA) ([Spaggiari et al., 2014]) connected to an automatic sample injector and a 1250 series pump was used. The UHPLC system was connected to a Thermo Fisher (Waltham, MA) LTQ Orbitrap mass spectrometer. For all other analyses, an AB Sciex Triple Quad 5500 coupled to a UHPLC equipped with a UV 1290 diode detector (Agilent Technologies, Santa Clara, CA) and a CTC PAL self-collecting system (LEAP Technologies, Carrboro, NC) was used. Q1 MS positive ion mode (300–500 Da) was used to detect the ions of the parent compounds. The UV detector was operated in spectral mode (250–280 nm). A Hypersil Gold C18 (2.1 mm × 100 mm, 1.9 µm, Thermo Fisher) HPLC column was used. The mobile phases were solvent A (0.1% formic acid in water) and solvent B (0.1% formic acid in ACN). The flow was adjusted to 0.55 ml/min, and the injection volume was adjusted to […]. The gradient started with 1% solvent B for 0.4 min, reached 40% (solvent B) in 2.3 min and 95% (solvent B) in 0.67 min, was maintained for 0.5 min, and returned to the initial condition of 1%. This condition was maintained for 1 min before injection of the next sample. The peak area ratio (peak area of the test compounds/peak area of the control compounds) was converted to the percentage of remaining compound, with the 0 min time point ratio set to 100%. T½ and CLint were calculated from the percentage of remaining compound versus the incubation time. From the resulting function, the slope (k) was determined. The equations T1/2 (min) = ln(2)/k and CLint in vitro (μL/min/mg) = k*1000/0.25 were used to determine T½ and CLint.

[3] = Fraction unbound by equilibrium dialysis; type: in vitro ADME; settings: Table S5; fraction unbound
Description: The fraction unbound (fu) ([Masimirembwa et al., 2003]) of the test compounds was determined after incubation with different media, namely, plasma, microsomes, and buffer with 10% FCS. Equilibrium dialysis was performed in a 96-well plate (HT-Dialysis, Gales Ferry, CT) in which each well was divided by a semipermeable membrane (12–14 kDa cutoff). The test compounds diluted in either plasma, microsome suspension, or buffer were added to one side of the membrane. Potassium phosphate buffer (50 mM, pH 7.4) was added to the other side of the membrane. A standard curve was used to calculate the compound concentration (fu) on each side of the membrane. Stock solutions of each compound were prepared in 100% DMSO to obtain a final concentration of 1 mM. The following compound concentrations were used: 1, 2, 20, 200, 2,000 and 5,000 nM. To 500 μl of medium, 0.5 μl of the compound stock solution was added, and this was applied to one side of the well. Each compound was evaluated in triplicate. Next, the plate was assembled, sealed, and incubated at 37°C under rotation (150 rpm) for 4 h. After the incubation period, the plates were subjected to LC-MS/MS.

[4] = In vitro metabolic stability in mouse liver microsomes; type: in vitro ADME; settings: for CLint (L/h/kg) Mouse: Table S5; for CLint_u (L/h/kg) Mouse: Table S5, CLint/fu
Description: as §1, §2

Row | Compound | IC50 at 72 h [1] [nM] | CLint (L/h/kg) Human [2] [L/h/kg] | CLint_u (L/h/kg) Human [2] | fu [3] | CLint (L/h/kg) Mouse [4] [L/h/kg] | CLint_u (L/h/kg) Mouse [4]
1 | COc1cccc2c1C(=O)c1c(O)c3c(c(O)c1C2=O)C[C@@](O)(C(=O)CO)C[C@@H]3O[C@H]1C[C@H](N)[C@H](O)[C@H](C)O1 [Doxorubicin, reference compound] | 260 | – | – | – | – | –
2 | O=C(COc1ccc2ccccc2c1CO)NCCc1nc2ccccc2[nH]1 [Compound 46] | – | 24.70 | 32.04 L/h/kg | 0.77 | 757.00 | 981.84 L/h/kg
3 | O=C(COc1ccccc1I)NCCc1nc2ccccc2[nH]1 [Compound 41] | – | 39.40 | 62.44 L/h/kg | 0.63 | 683.00 | 1,082.41 L/h/kg
4 | Cc1cc(C)c(C#N)c(SCC(=O)NCCc2nc3ccccc3[nH]2)n1 [Compound 59] | – | 61.50 | 64.36 L/h/kg | 0.96 | 433.00 | 453.17 L/h/kg
5 | O=C(CSc1ccccc1)NCCc1nc2ccccc2[nH]1 [Compound 48] | – | 9.07 | 11.38 L/h/kg | 0.80 | 234.00 | 293.60 L/h/kg
6 | O=C(COc1ccccc1Cl)NCCc1nc2ccccc2[nH]1 [Compound 40] | – | 19.50 | 22.70 L/h/kg | 0.86 | – | 419.09 L/h/kg
7 | CC(=O)NCCc1nc2ccccc2n1CCOCc1ccccc1 [Compound 56] | – | 4.75 | 4.90 L/h/kg | 0.97 | 95.10 | 98.14 L/h/kg
8 | Cc1ccc2[nH]c(CCNC(=O)COc3ccc4ccccc4c3Br)nc2c1 [Compound 54] | – | 65.00 | 1,334.7 L/h/kg | 0.05 | 528.00 | –
9 | O=C(COc1ccc2ccccc2c1Br)NCCc1nc2cc(Cl)ccc2[nH]1 [Compound 52] | – | 41.60 | 2,122.45 L/h/kg | 0.02 | 407.00 | –
10 | COc1cccc(C(=O)CCn2c(CCNC(=O)COc3ccc4ccccc4c3Br)nc3ccccc32)c1 [Compound 62] | – | 125.00 | 5,186.72 L/h/kg | 0.02 | 331.00 | –
11 | O=C(COc1ccc2ccccc2c1)NCCc1nc2ccccc2o1 [Compound 51] | – | 35.40 | 65.56 L/h/kg | 0.54 | 618.00 | 1,144.44 L/h/kg
12 | Cc1ccccc1OCC(=O)NCCc1c[nH]c2ccccc12 [Compound 50] | – | 23.60 | 38.63 L/h/kg | 0.61 | 790.00 | 1,292.96 L/h/kg
13 | Cc1cc(C)c(C#N)c(SCC(=O)NCCc2c[nH]c3ccccc23)n1 [Compound 60] | – | 155.00 | 194.48 L/h/kg | 0.79 | 485.00 | 608.53 L/h/kg
